{
  "source": "patent US20230248834A1",
  "about": "“DEGRADATION OF (EGFR) BY CONJUGATION OF EGFR INHIBITORS WITH E3 LIGASE LIGAND AND METHODS OF USE” (BEIGENE, LTD., priority 2020, published 2023)",
  "format_in_all_cases": "cell-based",
  "key": {"[1]": {"test_system": "EGFR Del19/T790M/C797S", "experiment": "EGFR degradation HTRF assay in H1975-clone #28 (H1975 #28 DTC)", "conditions": "H1975-clone #28 (Del19/T790M/C797S), maximum percentage of inhibition (degradation)", "protocol": "Cell Line Generation H1975-clone #28(Del19/T790M/C797S) and H1975-clone #23(Del19/C797S). EGFR-Del19/T790M/C797S and EGFR-Del19/C797S were stably expressed in H1975 cell lines by lentivirus-mediated over-expression, respectively. The EGFR over-expressed cells then underwent gene knockout, in which the EGFR targeting sgRNA was designed to only target the endogenous EGFR copies and preserve the exogenous EGFR copies. Followed by the gene knockout, the edited H1975 cells were seeded in 96 well plates at the concentration of 1 cell/well, cultured for about 2 weeks to allow single clones formation. The formed clones were screened by DNA sequencing and whole exon sequencing analysis for the desired edition. H1975-clone #28 and H1975-clone #23 were finally confirmed as homozygous Del19/T790M/C797S EGFR and Del19/C797S EGFR clones, respectively.\nAfter 16 h treatment, add HTRF lysis buffer to each well; seal the plate and incubate 1 hour at room temperature on a plate shaker; Once the cells are lysed, 16 μL of cell lysate are transferred to a PE 384-well HTRF detection plate; 4 μL of pre-mixed HTRF antibodies are added to each well; Cover the plate with a plate sealer, spin 1000 rpm for 1 min, Incubate overnight at room temperature; Read on BMG PheraStar with HTRF protocol (337 nm-665 nm-620 nm).\nThe inhibition (degradation) percentage of the compound was calculated by the following equation: Inhibition percentage of Compound=100−100×(Signal−low control)/(High control−low control), wherein signal=each test compound group\nHigh control=Cell group with added DMSO and without compound, indicating microplate readings without EGFR degradation;\nDmax is the maximum percentage of inhibition (degradation).\nThe IC50 (DC50) value of a compound can be obtained by fitting the following equation\nY=Bottom+(TOP−Bottom)/(1+((IC50/X)^hillslope))\nWherein, X and Y are known values, and IC50, Hillslope, Top and Bottom are the parameters obtained by fitting with software. […]"}, "[2]": {"target": "T1, EGFR L858R/T790M/C797S (Homo sapiens, UniProt P00533, C797S/L858R/T790M)", "T1 construct": "expressed in transfected cells; host or cells: BaF3-LTC", "T1 sequence (P00533 25-1210 T790M/C797S/L858R)": "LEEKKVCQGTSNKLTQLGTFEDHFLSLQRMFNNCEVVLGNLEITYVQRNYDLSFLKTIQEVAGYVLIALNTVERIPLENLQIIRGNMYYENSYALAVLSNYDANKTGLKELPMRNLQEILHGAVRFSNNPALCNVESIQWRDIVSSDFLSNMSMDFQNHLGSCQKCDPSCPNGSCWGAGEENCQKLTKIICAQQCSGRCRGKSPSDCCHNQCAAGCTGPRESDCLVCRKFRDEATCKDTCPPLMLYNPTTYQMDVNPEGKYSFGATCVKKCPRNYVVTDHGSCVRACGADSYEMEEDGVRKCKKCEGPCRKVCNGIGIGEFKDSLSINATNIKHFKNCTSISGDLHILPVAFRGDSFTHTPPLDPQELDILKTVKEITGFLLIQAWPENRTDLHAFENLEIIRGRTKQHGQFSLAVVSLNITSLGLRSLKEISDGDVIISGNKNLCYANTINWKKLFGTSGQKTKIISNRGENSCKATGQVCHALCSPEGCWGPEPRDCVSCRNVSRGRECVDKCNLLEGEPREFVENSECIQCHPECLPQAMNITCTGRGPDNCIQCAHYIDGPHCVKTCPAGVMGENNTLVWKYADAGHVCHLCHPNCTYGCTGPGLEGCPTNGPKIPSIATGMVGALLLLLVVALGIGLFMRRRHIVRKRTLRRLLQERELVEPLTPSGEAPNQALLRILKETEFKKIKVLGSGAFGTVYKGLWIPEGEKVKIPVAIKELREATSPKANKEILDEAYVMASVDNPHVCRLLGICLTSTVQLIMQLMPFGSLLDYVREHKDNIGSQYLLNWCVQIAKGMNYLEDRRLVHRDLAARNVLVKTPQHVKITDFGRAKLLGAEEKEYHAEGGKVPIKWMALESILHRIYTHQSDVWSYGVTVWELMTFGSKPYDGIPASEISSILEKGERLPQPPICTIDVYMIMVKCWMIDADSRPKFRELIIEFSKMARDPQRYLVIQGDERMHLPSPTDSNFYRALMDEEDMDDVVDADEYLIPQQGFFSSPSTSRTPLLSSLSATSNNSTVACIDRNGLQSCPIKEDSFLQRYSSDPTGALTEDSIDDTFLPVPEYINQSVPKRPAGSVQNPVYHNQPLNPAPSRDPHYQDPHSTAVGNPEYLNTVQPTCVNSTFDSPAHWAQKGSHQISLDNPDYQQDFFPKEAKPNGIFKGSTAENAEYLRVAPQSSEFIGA", "experiment": "EGFR degradation HTRF assay in BaF3-LTC cells", "conditions": "read-out: BaF3-LTC Dmax (%)", "summary_of_the_method": "(§1)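 BaF3 cells expressing EGFR L858R/C797S or L858R/T790M/C797S treated 16 h at 37 °C with compounds (top 10 uM, 5-fold, 8 doses; 0.2% DMSO). Remaining EGFR quantified by HTRF in lysates after overnight antibody incubation. Degradation percentage versus DMSO controls; DC50 from four-parameter fit, Dmax as maximal degradation.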"}, "[3]": {"target": "T2, EGFR L858R/C797S (Homo sapiens, UniProt P00533, C797S/L858R)", "T2 construct": "expressed in transfected cells; host or cells: BaF3 LC", "T2 sequence (P00533 25-1210 C797S/L858R)": "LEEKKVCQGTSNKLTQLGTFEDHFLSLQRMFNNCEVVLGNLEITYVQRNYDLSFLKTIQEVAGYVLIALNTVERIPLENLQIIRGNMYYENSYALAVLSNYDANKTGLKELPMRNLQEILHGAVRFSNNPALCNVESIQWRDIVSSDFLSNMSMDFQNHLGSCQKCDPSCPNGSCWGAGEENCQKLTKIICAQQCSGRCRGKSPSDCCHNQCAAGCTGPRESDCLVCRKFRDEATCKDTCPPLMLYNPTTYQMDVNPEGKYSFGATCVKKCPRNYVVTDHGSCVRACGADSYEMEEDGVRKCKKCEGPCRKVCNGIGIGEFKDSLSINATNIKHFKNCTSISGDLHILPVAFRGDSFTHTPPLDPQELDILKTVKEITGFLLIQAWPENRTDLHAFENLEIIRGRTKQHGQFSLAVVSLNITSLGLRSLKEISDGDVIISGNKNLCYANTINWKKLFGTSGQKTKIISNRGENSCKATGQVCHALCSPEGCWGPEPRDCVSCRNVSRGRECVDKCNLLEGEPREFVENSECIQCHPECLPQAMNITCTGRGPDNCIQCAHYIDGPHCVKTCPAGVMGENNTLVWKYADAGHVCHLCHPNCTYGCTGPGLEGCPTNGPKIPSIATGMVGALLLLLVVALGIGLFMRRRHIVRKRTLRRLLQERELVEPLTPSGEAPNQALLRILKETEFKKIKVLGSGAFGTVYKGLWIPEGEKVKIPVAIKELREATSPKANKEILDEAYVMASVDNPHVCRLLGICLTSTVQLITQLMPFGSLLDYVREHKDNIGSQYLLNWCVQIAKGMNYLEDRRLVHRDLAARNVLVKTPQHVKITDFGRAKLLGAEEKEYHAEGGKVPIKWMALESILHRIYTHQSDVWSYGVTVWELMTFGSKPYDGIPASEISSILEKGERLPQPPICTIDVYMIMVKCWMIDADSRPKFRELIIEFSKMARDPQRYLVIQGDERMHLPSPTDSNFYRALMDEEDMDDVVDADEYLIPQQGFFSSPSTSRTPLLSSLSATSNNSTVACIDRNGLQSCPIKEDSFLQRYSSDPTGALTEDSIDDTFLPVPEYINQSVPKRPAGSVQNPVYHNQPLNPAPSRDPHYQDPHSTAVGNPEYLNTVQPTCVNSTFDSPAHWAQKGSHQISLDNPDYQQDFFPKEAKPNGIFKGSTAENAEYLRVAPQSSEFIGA", "experiment": "EGFR degradation HTRF assay in BaF3 LC cells", "conditions": "BaF3, read-out: BaF3 LC Dmax (%)", "summary_of_the_method": "as §1"}},
  "data": [
    {"smiles": "CCc1ncc2c(P(C)(C)=O)c(Nc3nc(Nc4cc(CC)c(N5CCC(N6CCN(CCc7ccc8c(c7)oc(=O)n8C7CCC(=O)NC7=O)CC6)CC5)cc4OC)ncc3Br)ccc2n1", "note": "(centres unmarked) [Example 499, 3-(6-(2-(4-(1-(4-((5-bromo-4-((5-(dimethylphosphoryl)-2-ethylquinazolin-6-yl)amino)pyrimidin-2-yl)amino)-2-ethyl-5-methoxyphenyl)piperidin-4-yl)piperazin-1-yl)ethyl)-2-oxobenzo[d]oxazol-3(2H)-yl)piperidine-2,6-dione]", "values": [
      {"measurement": "H1975 # 28 DTC Dmax (%)", "setting": "[1]", "value": 77.41, "unit": "%"},
      {"measurement": "Dmax", "setting": "[2]", "value": 87.8, "unit": "%"},
      {"measurement": "Dmax", "setting": "[3]", "value": 91, "unit": "%"}
    ]},
    {"smiles": "CCOc1cc(N2CCC(N3CCN(CC4CN(c5cccc6c5oc(=O)n6C5CCC(=O)NC5=O)C4)CC3)CC2)c(CC)cc1Nc1ncc(Br)c(Nc2ccc3nc(CC)ncc3c2P(C)(C)=O)n1", "note": "(centres unmarked) [Example 566, 3-(7-(3-((4-(1-(4-((5-bromo-4-((5-(dimethylphosphoryl)-2-ethylquinazolin-6-yl)amino)pyrimidin-2-yl)amino)-5-ethoxy-2-ethylphenyl)piperidin-4-yl)piperazin-1-yl)methyl)azetidin-1-yl)-2-oxobenzol[d]oxazol-3(2H)-yl)piperidine-2,6-dione]", "values": [
      {"measurement": "H1975 # 28 DTC Dmax (%)", "setting": "[1]", "value": 84.02, "unit": "%"},
      {"measurement": "Dmax", "setting": "[2]", "value": 93.9, "unit": "%"}
    ]}
  ]
}
